A melting point compilation (Tetko et al.; mined from patent text by program, amines drawn as free bases though some values may be those of a salt)

Row | SMILES | melting point [°C]
1 | O=C(O)CCCn1c(=O)[nH]c2ccccc21 | 180
2 | CNC(=C[N+](=O)[O-])NCCSCc1nccs1 | 103 to 104
3 | CCc1c(C)sc2ncnc(Cl)c12 | 52 to 56
4 | COc1ccc(/C=C/c2nc3cc([N+](=O)[O-])ccc3[nH]2)cc1OC | 223 to 225
5 | CC(C)(C)C(=O)Nc1ccc(C(F)(F)F)cc1C=O | 69 to 73
6 | CCNCC1CN(c2c(F)cc3c(=O)c(C(=O)O)cn(C4CC4)c3c2F)C1 | 237 to 242
7 | Cc1ccc(OCCC(CCl)NC(=O)c2c(F)cccc2F)cc1 (centres undefined) | 97 to 99
8 | O=CN1CCC(c2ccccc2Cc2ccccc2)C1 (centres undefined) | 70 to 71
9 | Brc1ccc(OCCC(c2ccccc2)c2ccccc2)cc1 | 70 to 71
10 | COC(=O)c1ccc2c(c1)C(SCCO)c1ccccc1CO2 (centres undefined) | 128 to 130
11 | O=[N+]([O-])c1ccnc(Nc2nccs2)c1 | 230 to 233
12 | CCOC(=O)N1C=CC(c2c(-c3ccc(F)cc3)nc3c(C)c(C)c(Cl)nn23)C=N1 (centres undefined) | 159 to 161
13 | CCCN(CCC)C(=O)Cc1cn(Cc2ccccc2Br)c2ccccc12 | 118 to 119
14 | COc1ccccc1-c1ccccc1/C=C/C1CC(O)CC(=O)O1 (centres undefined) | 129 to 131
15 | C#CCOc1cc(Cl)ccc1-n1c(=O)cc(C(F)(F)F)n(C)c1=O | 147 to 148
16 | c1ccc(-c2ccc(CN3Cc4cccn4Cc4ccccc43)cc2)cc1 | 135 to 137
17 | CCCn1nc(-c2ccc(OC)cc2)c2cccc(-c3ccc(F)cc3)c21 | 110 to 111
18 | COCCS(=O)(=O)c1ccccc1S(N)(=O)=O | 120 to 123
19 | C=CCCn1c2ccc(OC)cc2c2c3c(c(-c4ccccc4Cl)cc21)C(=O)N(Cc1ccc(OC)cc1OC)C3=O | 161 to 164
20 | COc1cc(O)c(C#N)c2cc(-c3ccc(O)c(F)c3)oc12 | 265 to 267
21 | Nn1c(=O)n(-c2cc(Cl)ccc2O)c2ccc(C(F)(F)F)cc21 | 228 to 230
22 | O=C(O)c1cc2cc(OCc3ccccc3)ccc2cc1OCc1ccccc1 | 163 to 165
23 | COC(=O)Cn1c(=O)[nH][nH]c1=O | 215 to 218
24 | Cn1ncc(C(=O)N2CC3(COC3)C2)c1C(=O)Nc1ccn2nc(N3CCOCC3)nc2c1 | > 300
25 | CCCCN(Cc1ccc(-c2ccccc2-c2nnn[nH]2)cc1)c1nnn(CC(C)C)c1C(=O)O | 105 to 106

Row | SMILES | melting point [°C]
26 | COC(=O)c1cccc(S(=O)(=O)N(C)C)c1C | 40 to 43
27 | O=C1N(CCCOCc2ccccc2)c2ccccc2C12COc1cc3c(cc12)OCCO3 (centres undefined) | 37 to 38
28 | CC1=C(C(N)=O)C(c2ccccc2)(N2CCN(c3ccc(F)cc3C)CC2)NO1 (centres undefined) | 139 to 141
29 | c1csc(-c2ncc(COc3ccc(CCCn4ccnc4)cc3)s2)c1 | 112 to 113
30 | CN1C(=O)[C@H](NC(=O)C2Cc3ccccc3O2)N=C(c2ccccc2)c2ccccc21 (some centres undefined) | 141 to 180
31 | CCCCc1c(C=O)ccc2cc(OC)ccc12 | 56 to 57
32 | COc1ccc(CN2C(=O)C(C)(c3cc(NS(C)(=O)=O)ccc3Cl)c3cc(Cl)ccc32)c(OC)c1 (centres undefined) | 210
33 | CN1CCN(C(=O)COc2cccc(-n3nc(-c4ccc(F)cc4)c4cccnc43)c2)CC1 | 132 to 135
34 | C=Cn1cc(C(=O)O)c(=O)c2cc(F)c(N3CCOCC3)cc21 | 218 to 220
35 | CC(=O)OC(C)(N=NC(C)(OC(C)=O)C(C)C)C(C)C (centres undefined) | 55 to 62
36 | CN(CCCS(=O)CCCC(F)(F)C(F)(F)F)CCOc1ccc(C2=C(c3ccccc3)CCCc3ccccc32)cc1 (centres undefined) | 74 to 77
37 | COC(=O)c1cc(C(=O)c2c(C)c(NS(=O)(=O)c3cccc(OC)c3)c3ccccn23)ccc1NC(=O)C(F)(F)F | 220
38 | CNC(=O)ON=C(C)CSC(F)(F)F | 56 to 58
39 | CCOC(=O)COc1cc2cc(C3CCCC3)sc2c(Cl)c1Cl | 65 to 67
40 | CC(=O)OC[C@H]1[C@H](O)[C@@H](O)[C@@H](O)[C@@H]2NC(=O)c3cc4c(cc3[C@@H]12)OCO4 | > 200
41 | COc1ccc(C(=O)c2c(Cc3ccccc3)sc3cc(OC)ccc23)cc1 | 110 to 112
42 | O=C1Nc2ccc(Cl)cc2C2(c3ccccc3)OCCN12 (centres undefined) | 216 to 217
43 | CC1(C)CC(O)C(C)(C)c2cc(C=O)ccc21 (centres undefined) | 76 to 78
44 | Cn1nc(-c2cccc(-n3ncc4cc(C(C)(C)C)cc(F)c4c3=O)c2CO)cc(Nc2cnc(CNC3CCC3)cn2)c1=O | 163 to 167
45 | COc1ccc(N2C(=O)C(OC)C2c2ccc(C(=O)O)cc2)cc1 (centres undefined) | 233
46 | Cc1ccc(C(=O)c2cc(CN3CCOCC3)c(O)c(C(C)(C)C)c2)cc1 | 131 to 133
47 | CC(C)N(CCN1C(=O)C(=O)c2cc(Br)ccc21)C(C)C | 91 to 93
48 | Cc1oc(-c2ccc(C(F)(F)F)cc2)nc1CCOc1c(Cl)cc(CN(O)C(N)=O)cc1Cl | 137 to 139
49 | CCNC(=O)c1c(C2CC2)nc(CC)n1Cc1ccc2oc(-c3ccccc3C(=O)O)c(Br)c2c1 | 182 to 184
50 | CCN(CC)CCNC(=O)c1c2ccccc2nc2ccc(I)cc12 | 83 to 85

Row | SMILES | melting point [°C]
51 | CC(C)(C)c1cc(C(C)(C)C)c(O)c(C(=O)Nc2ccc(S(=O)(=O)C(F)(F)F)cc2Cl)c1O | 149 to 150
52 | CCOC(=O)Cc1ccccc1N(C(=O)CNC(=O)Nc1cccc(C)c1)c1ccccc1 | 120
53 | C[C@](N)(CO)CCc1ccc2oc(-c3ccc(O)cc3)nc2c1 | 229 to 231
54 | N#Cc1ccc(-c2ncc(C(F)(F)F)cc2Cl)cc1O | 155 to 157
55 | CCOC(=O)c1nc(NCC(c2ccccc2)c2ccccc2)c2ncn([C@@H]3O[C@H](CO)[C@@H](O)[C@H]3O)c2n1 | 118 to 120
56 | C=CCNc1nc(NC(C)C)nc2ccc([N+](=O)[O-])cc12 | 150 to 151
57 | Cc1c(Nc2c(C#N)cncc2-c2cc3cc(CN4CCCCC4)ccc3s2)ccc2[nH]ccc12 | 174 to 175
58 | CC(C)(C(=O)O)c1cc(C(F)(F)F)cc(C(F)(F)F)c1 | 106 to 107
59 | O=C(NCCO[N+](=O)[O-])c1ccsc1 | 100 to 102
60 | COc1ccc(N(CC(O)CO)S(=O)(=O)c2c(F)c(F)c(F)c(F)c2F)cc1 (centres undefined) | 130 to 131
61 | Oc1ccc(Cc2nc(-c3cccs3)c[nH]2)cc1 | 189 to 191
62 | COC(=O)c1ccc(C=Cc2ccc(-c3cc4cc(Cl)ccc4o3)cc2)cc1 | 264 to 266
63 | CC1SC(N2N=C(c3ccc([N+](=O)[O-])cc3)c3cc4c(cc3CC2C)OCO4)=NC1=O (centres undefined) | 213 to 214
64 | COc1cccc2c(=O)cc(-c3ccccc3SCc3ccccc3)[nH]c12 | 139 to 140
65 | On1nc(Br)c(Cl)c1Br | 160
66 | O=C1N[C@H](Cc2ccc(C(F)(F)F)cc2)[C@H](c2ccc(Cl)nc2)O1 (racemic) | 176 to 177
67 | CCC(Oc1ccc(CCC(=O)c2ccc(-c3ccc(C(F)(F)F)cc3)s2)cc1)C(=O)O (centres undefined) | 116 to 117
68 | CCCCCCn1c2ccccc2c2ccc(CO)cc21 | 54 to 55
69 | CC(=O)n1nc(CN2CCc3ccccc3C2)c2ccc(F)cc21 | 106 to 107
70 | CCOC(=O)c1ncc2[nH]c3ccc(C4CCCC(=O)C4)cc3c2c1C (centres undefined) | 182 to 189
71 | Cc1nnc2ccc(-c3cccc(NC(C)C)c3)nn12 | 157 to 159
72 | Cc1cccc(NC(=O)NCC(=O)N(CC(=O)N2CCCCC2C)c2ccccc2)c1 (racemic) | 188
73 | COC(=O)C=CC=CCSc1ccc(N(C)C)cc1 | 68 to 70
74 | CC(C)n1nc(-c2c(-c3ccccc3)nc(N)nc2-n2ccnc2)ccc1=O | 255 to 258
75 | CC1C(=O)NC2=Nc3ccc(OCCCCC(=O)N(CCO)C4CCCCC4)c(Cl)c3CN21 (centres undefined) | 206 to 208

Row | SMILES | melting point [°C]
76 | COc1ccc(C=O)cc1OC1CC2CCC1C2 (centres undefined) | 75.5 to 79.5
77 | CCN1CCCC(NC(=O)c2ccccc2Nc2ccnc3cc(Cl)ccc23)C1 (centres undefined) | 187 to 188
78 | CCc1ccc2c(O)c(-c3nnnn3C)cnc2c1 | 270 to 273
79 | Cc1n[nH]c(C)c1Oc1cc(C#N)cc(C#N)c1 | 182 to 185
80 | Clc1ccc2c(c1)CCC(c1ccccc1)O2 (centres undefined) | 71 to 72
81 | CCn1ncc2c1ncc1c(=O)n3nc(C)cc3n(C)c12 | 306 to 307
82 | CCC1(CCCCCBr)C(=O)Nc2ccccc21 (centres undefined) | 77 to 78
83 | C[C@H](NC(=O)C1(C)Oc2ccc([N+](=O)[O-])cc2NC1=O)C(=O)N[C@H](CCC(=O)O)C(N)=O (some centres undefined) | 142 to 146
84 | Cc1cn(Cc2ccc3c(c2)-c2[nH]nc(-c4ccsc4)c2C3)cn1 | 122 to 125
85 | CC(=O)Nc1ccc2nc3ccccc3c(-c3cc(C)ccc3C)c2c1 | 236 to 238
86 | CC(=O)NCC1CN(c2cc(F)c(N3CCN(C(=O)COC(=O)c4ccc(N(C)C)cc4)CC3)c(F)c2)C(=O)O1 (centres undefined) | 199 to 202
87 | COc1cc(N2CCN(CCc3coc4ccc(F)cc34)CC2)c2ncccc2c1 | 80
88 | COc1ccc(N2CCN(c3ccc(-n4c(C)nn(CC(=O)c5ccc(Cl)cc5)c4=O)cc3)CC2)cc1 | 230
89 | CCC(=NOCCO)c1ccc(-c2ccccc2)cc1 | 76
90 | CN1C(=O)CN(N=Cc2ccccc2)C1=O | 253 to 255
91 | O=c1cc(C(F)(F)F)c2ccc(N3CCOCC3)nc2o1 | 218 to 220
92 | NCc1nc(-c2ncn3c2[C@@H]2CCN2C(=O)c2sccc2-3)no1 | 235 to 238
93 | Cn1c(-c2ccc3c(c2)C(C)(C)OC(=O)N3)ccc1[N+](=O)[O-] | 180 to 185
94 | CNc1nc(O)cc(O)n1 | 290
95 | CCc1nn(C2CCCCC2)c2cc(C(=O)Nc3c(Cl)cncc3Cl)ccc12 | 124 to 127
96 | COc1ccc(C(=O)Cc2c(Cl)cncc2Cl)cc1OC1CCCC1 | 119 to 120
97 | CC(=O)N=C(CCSCc1csc(NC(=N)N)n1)NC(C)=O | 180 to 181
98 | O=C(c1cccs1)c1cnn2c(-c3cccc(N(C(=O)c4c(Cl)cccc4Cl)C(=O)c4c(Cl)cccc4Cl)c3)ccnc12 | 238 to 240
99 | COC(=O)c1sccc1C(C)=O | 59 to 60
